Earlier results on 30 compounds are cited in patent publication US9182414B2, “Methods for identifying a GLP-1 secretagogue” (Arena Pharmaceuticals, Inc., priority 2005, dated 2015).

Square brackets hold non-standard residues; d marks the D form. Peptide text beside a SMILES is read from it. * marks the point of attachment. NHPhenethyl = c1ccc(CCN*)cc1; Nphe = O=C(O)CNCc1ccccc1; PhAc = O=C(Cc1ccccc1)*; βAla = NCCC(=O)O

This data set addresses T1, BRS-3 (Homo sapiens, UniProt P32247).
T1 sequence (P32247 1-399): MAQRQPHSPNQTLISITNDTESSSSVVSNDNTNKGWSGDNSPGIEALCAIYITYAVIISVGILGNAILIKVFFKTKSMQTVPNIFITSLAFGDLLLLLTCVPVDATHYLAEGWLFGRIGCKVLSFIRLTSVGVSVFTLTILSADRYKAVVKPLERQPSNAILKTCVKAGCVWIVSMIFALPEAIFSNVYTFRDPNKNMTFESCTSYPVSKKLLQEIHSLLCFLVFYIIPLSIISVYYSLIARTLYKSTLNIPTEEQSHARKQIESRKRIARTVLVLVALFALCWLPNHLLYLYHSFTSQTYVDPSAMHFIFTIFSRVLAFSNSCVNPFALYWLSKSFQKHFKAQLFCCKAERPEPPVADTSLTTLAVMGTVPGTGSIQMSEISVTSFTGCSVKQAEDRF
To be noted: BRS-3 over GRP-R and NMB-R; description taken from literature.
With `NC(=O)CC[C@H](NC(=O)CCc1ccc(Cl)cc1)C(=O)N[C@H](Cc1c[nH]c2ccccc12)C(=O)NCCc1ccccc1` [Compound 1, N1-{(1R)-2-(1H-3-Indolyl)-1-[1-(2-phenylethyl)carbamoyl]ethyl}-(2S)-2-[1-(2-(4-chlorophenyl)ethyl)carboxamido]pentanediamide], the “selectivity as BRS-3 agonist” value is on record as “selective BRS-3 agonists”.

`NC(=O)CC[C@H](NC(=O)Cc1cc2ccccc2[nH]1)C(=O)N[C@H](Cc1c[nH]c2ccccc12)C(=O)NCCc1ccccc1` [Compound 2, N1-{(1R)-2-(1H-3-Indolyl)-1-[1-(2-phenylethyl)carbamoyl]ethyl}-(2S)-2-[(1H-2-indolylmethyl)carboxamido]pentanediamide]: the “selectivity as BRS-3 agonist” value is given as “selective BRS-3 agonists”.

`C[C@H](NC(=O)Cc1ccccc1)C(=O)N[C@H](Cc1c[nH]c2ccccc12)C(=O)NCCc1ccccc1` [Compound 3, N1-(2-Phenylethyl)-(2R)-2-{[(1S)-1-(benzylcarboxamido)ethyl]carboxamido}-3-(1H-3-indolyl)propanamide] (PhAc-Ala-[dW]-NHPhenethyl): the “selectivity as BRS-3 agonist” value was “selective BRS-3 agonists”.

For the compound `C[C@H](NC(=O)Cc1ccc(Cl)cc1)C(=O)N[C@H](Cc1c[nH]c2ccccc12)C(=O)NCCc1ccccc1` [Compound 4, N1-(2-Phenylethyl)-(2R)-2-{[(1S)-1-((4-chlorobenzyl)-carboxamido)ethyl]carboxamido}-3-(1H-3-indolyl)propanamide], the “selectivity as BRS-3 agonist” value was “selective BRS-3 agonists”.

With `C[C@H](NC(=O)Cc1ccc2c(c1)OCO2)C(=O)N[C@H](Cc1c[nH]c2ccccc12)C(=O)NCCc1ccccc1` [Compound 5, N1-(2-Phenylethyl)-(2R)-2-{[(1S)-1-((1,3-benzodioxol-5-ylmethyl)carboxamido)ethyl]carboxamido}-3-(1H-3-indolyl)propanamide], the “selectivity as BRS-3 agonist” value is on record as “selective BRS-3 agonists”.

For `C[C@H](NC(=O)Cc1cccnc1)C(=O)N[C@H](Cc1c[nH]c2ccccc12)C(=O)NCCc1ccccc1` [Compound 6, N1-(2-Phenylethyl)-(2R)-2-{[(1S)-1-((3-pyridyl)methylcarboxamido)ethyl]carboxamido}-3-(1H-3-indolyl)propanamide], the “selectivity as BRS-3 agonist” value is recorded as “selective BRS-3 agonists”.

As for `C[C@H](NC(=O)CC1NCCc2ccccc21)C(=O)N[C@H](Cc1c[nH]c2ccccc12)C(=O)NCCc1ccccc1` (stereo partly drawn) [Compound 7, N1-(2-Phenylethyl)-(2R)-2-{[(1S)-1-((1,2,3,4-tetrahydro-1-isoquinolinyl)methylcarboxamido)ethyl]carboxamido}-3-(1H-3-indolyl)propanamide], the “selectivity as BRS-3 agonist” value is “selective BRS-3 agonists”.

As to `C[C@H](NC(=O)Cc1cc2ccccc2[nH]1)C(=O)N[C@H](Cc1c[nH]c2ccccc12)C(=O)NCCc1ccccc1` [Compound 8, N1-(2-Phenylethyl)-(2R)-2-{[(1S)-1-((1H2-indolyl)methylcarboxamido)ethyl]carboxamido}-3-(1H-3-indolyl)propanamide], the “selectivity as BRS-3 agonist” value is listed as “selective BRS-3 agonists”.

As to `O=C(CNCc1ccccc1)N[C@H](Cc1c[nH]c2ccccc12)C(=O)NCCc1ccccc1` [Compound 9, N1-(2-Phenylethyl)-(2R)-2-{[(benzyl)amino]methylcarboxamido}-3-(1H-3-indolyl)propanamide] (H-[Nphe]-[dW]-NHPhenethyl), the “selectivity as BRS-3 agonist” value is reported as “selective BRS-3 agonists”.

In the case of `O=C(CNCc1ccc(Cl)cc1)N[C@H](Cc1c[nH]c2ccccc12)C(=O)NCCc1ccccc1` [Compound 10, N1-(2-Phenylethyl)-(2R)-2-{[(4-chlorobenzyl)amino]-methylcarboxamido}-3-(1H-3-indolyl)propanamide], the “selectivity as BRS-3 agonist” value is reported as “selective BRS-3 agonists”.

Consider `O=C(CNCc1cccnc1)N[C@H](Cc1c[nH]c2ccccc12)C(=O)NCCc1ccccc1` [Compound 11, N1-(2-Phenylethyl)-(2R)-2-{[(3-pyridyl)methylamino]-methylcarboxamido}-3-(1H-3-indolyl)propanamide], for which the “selectivity as BRS-3 agonist” value is given as “selective BRS-3 agonists”.

For the compound `O=C(CNCCc1ccccc1)N[C@H](Cc1c[nH]c2ccccc12)C(=O)NCCc1ccccc1` [Compound 12, N1-(2-Phenylethyl)-(2R)-2-{[1-(2-phenylethyl)amino]-methylcarboxamido}-3-(1H-3-indolyl)propanamide], the “selectivity as BRS-3 agonist” value was “selective BRS-3 agonists”.

In the case of `CC(NCc1ccccc1)C(=O)N[C@H](Cc1c[nH]c2ccccc12)C(=O)NCCc1ccccc1` (stereo partly drawn) [Compound 13], the “selectivity as BRS-3 agonist” value is listed as “selective BRS-3 agonists”.

On to `CC(NCc1ccc(Cl)cc1)C(=O)N[C@H](Cc1c[nH]c2ccccc12)C(=O)NCCc1ccccc1` (stereo partly drawn) [Compound 14, N1-(2-Phenylethyl)-(2R)-2-{[1-((4-chlorobenzyl)amino)ethyl]carboxamido}-3-(1H-3-indolyl)propanamide], for which the “selectivity as BRS-3 agonist” value was “selective BRS-3 agonists”.

Turning to `CC(NCCc1ccccc1)C(=O)N[C@H](Cc1c[nH]c2ccccc12)C(=O)NCCc1ccccc1` (stereo partly drawn) [Compound 15, N1-(2-Phenylethyl)-(2R)-2-{[1-(1-(2-phenylethyl)amino)ethyl]carboxamido}-3-(1H-3-indolyl)propanamide], the “selectivity as BRS-3 agonist” value is “selective BRS-3 agonists”.

As to `O=C(NNC(=O)c1ccccc1)N[C@H](Cc1c[nH]c2ccccc12)C(=O)NCCc1ccccc1` [Compound 16, N1-(2-Phenylethyl)-(2R)-2-{{N′-(benzoyl)hydrazino]carboxamido}-3-(1H-3-indolyl)propanamide], the “selectivity as BRS-3 agonist” value is “selective BRS-3 agonists”.

Regarding `O=C(NNC(=O)c1ccc(Cl)cc1)N[C@H](Cc1c[nH]c2ccccc12)C(=O)NCCc1ccccc1` [Compound 17, N1-(2-Phenylethyl)-(2R)-2-{{N′-(4-chlorobenzoyl)-hydrazino]carboxamido}-3-(1H-3-indolyl)propanamide], the “selectivity as BRS-3 agonist” value is “selective BRS-3 agonists”.

On to `O=C(Cc1cccnc1)NNC(=O)N[C@H](Cc1c[nH]c2ccccc12)C(=O)NCCc1ccccc1` [Compound 18, N1-(2-Phenylethyl)-(2R)-2-{[N′-(2-(3-pyridyl)ethanoyl)hydrazino]carboxamido}-3-(1H-3-indolyl)propanamide], for which the “selectivity as BRS-3 agonist” value is “selective BRS-3 agonists”.

For the compound `O=C(CC1NCCc2ccccc21)NNC(=O)N[C@H](Cc1c[nH]c2ccccc12)C(=O)NCCc1ccccc1` (stereo partly drawn) [Compound 19, N1-(2-Phenylethyl)-(2R)-2-{{N′-(2-(1,2,3,4-tetrahydro-1-isoquinolinyl)ethanoyl)hydrazino]carboxamido}-3-(1H-3-indolyl)propanamide], the “selectivity as BRS-3 agonist” value was “selective BRS-3 agonists”.

With `O=C(Cc1cc2ccccc2[nH]1)NNC(=O)N[C@H](Cc1c[nH]c2ccccc12)C(=O)NCCc1ccccc1` [Compound 20, N1-(2-Phenylethyl)-(2R)-2-{[N′-(2-(1H-2-indolyl)ethanoyl)hydrazino]carboxamido}-3-(1H-3-indolyl)propanamide], the “selectivity as BRS-3 agonist” value was “selective BRS-3 agonists”.

On to `O=C(NN=Cc1ccccc1)N[C@H](Cc1c[nH]c2ccccc12)C(=O)NCCc1ccccc1` [Compound 21, N1-(2-Phenylethyl)-(2R)-2-{[N′-(phenylmethylene)-hydrazino]carboxamido}-3-(1H-3-indolyl)propanamide], for which the “selectivity as BRS-3 agonist” value is “selective BRS-3 agonists”.

For `O=C(NN=Cc1ccco1)N[C@H](Cc1c[nH]c2ccccc12)C(=O)NCCc1ccccc1` [Compound 22, N1-(2-Phenylethyl)-(2R)-2-{[N′-(furan-2-ylmethylene)hydrazino]carboxamido}-3-(1H-3-indolyl)propanamide], the “selectivity as BRS-3 agonist” value was “selective BRS-3 agonists”.

As for `O=C(NNCc1ccccc1)N[C@H](Cc1c[nH]c2ccccc12)C(=O)NCCc1ccccc1` [Compound 23, N1-(2-Phenylethyl)-(2R)-2-{[N′-(benzyl)hydrazino]carboxamido}-3-(1H-3-indolyl)propanamide], the “selectivity as BRS-3 agonist” value is “selective BRS-3 agonists”.

With `O=C(NNCc1ccc(Cl)cc1)N[C@H](Cc1c[nH]c2ccccc12)C(=O)NCCc1ccccc1` [Compound 24, N1-(2-Phenylethyl)-(2R)-2-{[N′-(4-chlorobenzyl)hydrazino]carboxamido}-3-(1H-3-indolyl)propanamide], the “selectivity as BRS-3 agonist” value was “selective BRS-3 agonists”.

On to `O=C(NNCc1ccco1)N[C@H](Cc1c[nH]c2ccccc12)C(=O)NCCc1ccccc1` [Compound 25, N1-(2-Phenylethyl)-(2R)-2-{[N′-(2-furylmethyl)hydrazino]carboxamido}-3-(1H-3-indolyl)propanamide], for which the “selectivity as BRS-3 agonist” value is “selective BRS-3 agonists”.

As for `O=C(CN1CCN(Cc2ccccc2)CC1)N[C@H](Cc1c[nH]c2ccccc12)C(=O)NCCc1ccccc1` [Compound 26], the “selectivity as BRS-3 agonist” value was “selective BRS-3 agonists”.

For `O=C(CN1CCC(Cc2ccccc2)CC1)N[C@H](Cc1c[nH]c2ccccc12)C(=O)NCCc1ccccc1` [Compound 27, N1-(2-Phenylethyl)-(2R)-2-{[(4-benzylpiperidino)methyl]carboxamido}-3-(1H-3-indolyl)propanamide], the “selectivity as BRS-3 agonist” value is recorded as “selective BRS-3 agonists”.

For the compound Ac-FWAV[βAla]HRW-NH2 [Compound 33], the “selectivity as BRS-3 agonist” value is recorded as “selective BRS-3 agonists”.

On to “Ac-Phe-Trp-Ala-His(τBzl)-Nip-Gly-Arg-NH2 [Compound 31]”, for which the “selectivity as BRS-3 agonist” value is listed as “selective BRS-3 agonists”.

On to “Ac-Phe-Trp-Ala-His(τBzl)-βAla-His-Arg-NH2 [Compound 32]”, for which the “selectivity as BRS-3 agonist” value is recorded as “selective BRS-3 agonists”.
